# Tests used:
# [1] = target: DNA (cytosine-5)-methyltransferase 1 (Homo sapiens, UniProt P26358); test: Inhibition of human recombinant DNMT1 expressed in baculovirus-insect cell system by scintillation counting
# [2] = target: DNA (cytosine-5)-methyltransferase 3B (Homo sapiens, UniProt Q9UBC3); test: Inhibition of human recombinant DNMT3B expressed in baculovirus-insect cell system by scintillation counting
# Chain of DNA (cytosine-5)-methyltransferase 1 (P26358 whole entry): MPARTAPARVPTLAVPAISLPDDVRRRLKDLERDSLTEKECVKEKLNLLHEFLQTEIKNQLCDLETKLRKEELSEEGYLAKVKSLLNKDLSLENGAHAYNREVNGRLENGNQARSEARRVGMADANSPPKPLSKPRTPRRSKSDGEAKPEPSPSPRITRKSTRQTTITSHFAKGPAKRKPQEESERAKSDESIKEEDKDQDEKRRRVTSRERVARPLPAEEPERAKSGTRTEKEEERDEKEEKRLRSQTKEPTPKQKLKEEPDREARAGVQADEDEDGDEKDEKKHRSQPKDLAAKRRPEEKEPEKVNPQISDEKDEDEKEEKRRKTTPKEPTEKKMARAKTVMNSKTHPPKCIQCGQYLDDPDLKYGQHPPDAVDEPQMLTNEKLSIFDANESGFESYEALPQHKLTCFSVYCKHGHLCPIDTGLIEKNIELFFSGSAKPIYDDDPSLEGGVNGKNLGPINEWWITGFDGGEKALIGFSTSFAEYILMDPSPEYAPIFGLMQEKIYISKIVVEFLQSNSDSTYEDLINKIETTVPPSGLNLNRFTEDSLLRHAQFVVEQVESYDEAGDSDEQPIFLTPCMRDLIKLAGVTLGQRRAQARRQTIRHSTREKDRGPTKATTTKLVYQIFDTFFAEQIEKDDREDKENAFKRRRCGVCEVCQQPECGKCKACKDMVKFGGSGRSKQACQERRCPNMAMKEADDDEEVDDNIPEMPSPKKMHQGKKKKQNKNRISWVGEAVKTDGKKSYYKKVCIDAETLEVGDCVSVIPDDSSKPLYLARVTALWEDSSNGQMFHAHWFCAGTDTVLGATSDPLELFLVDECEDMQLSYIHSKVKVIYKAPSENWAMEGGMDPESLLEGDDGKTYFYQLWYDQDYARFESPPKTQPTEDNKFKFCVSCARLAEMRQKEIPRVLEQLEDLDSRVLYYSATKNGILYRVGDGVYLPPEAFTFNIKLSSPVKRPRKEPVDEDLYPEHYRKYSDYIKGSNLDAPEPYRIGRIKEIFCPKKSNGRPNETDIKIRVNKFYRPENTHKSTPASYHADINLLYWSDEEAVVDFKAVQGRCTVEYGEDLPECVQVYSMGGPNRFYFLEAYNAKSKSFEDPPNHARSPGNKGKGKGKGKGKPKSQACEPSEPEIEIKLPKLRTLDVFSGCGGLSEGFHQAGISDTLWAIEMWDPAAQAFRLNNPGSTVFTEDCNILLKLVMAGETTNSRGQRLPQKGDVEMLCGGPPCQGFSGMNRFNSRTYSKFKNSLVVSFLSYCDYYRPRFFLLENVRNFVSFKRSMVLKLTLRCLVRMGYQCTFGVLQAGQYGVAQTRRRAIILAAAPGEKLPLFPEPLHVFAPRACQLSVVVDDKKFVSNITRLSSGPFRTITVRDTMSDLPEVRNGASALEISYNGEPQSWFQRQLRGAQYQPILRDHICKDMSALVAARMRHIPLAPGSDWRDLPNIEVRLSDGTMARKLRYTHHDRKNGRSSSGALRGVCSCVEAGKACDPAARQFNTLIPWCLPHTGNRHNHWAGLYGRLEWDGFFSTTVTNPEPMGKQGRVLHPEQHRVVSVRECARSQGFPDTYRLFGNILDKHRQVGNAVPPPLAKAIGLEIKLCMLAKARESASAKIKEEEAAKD
IC50 ([1]; read-out: IC50) [µM],IC50 [2],IC50 [1],IC50 ([2]; read-out: IC50) [µM],SMILES
212,Not Active,,,O=C(O)COc1ccc(C(=O)c2cc(Br)ccc2OCC(=O)O)cc1
,Not Active,Not Active,,O=C(O)CCCC(C(=O)O)N1C(=O)c2ccccc2C1=O (stereo not given)
,,,0.25,Nc1ncnc2c1ncn2[C@@H]1O[C@H](CSCC[C@H](N)C(=O)O)[C@@H](O)[C@H]1O [S-ADENOSYLHOMOCYSTEINE]

# Source: ChEMBL document CHEMBL1157722, “Novel and selective DNA methyltransferase inhibitors: Docking-based virtual screening and experimental evaluation” (Bioorg Med Chem, 2010)
